Patent US20220127297A1, “Novel Antibacterial 3"-Derivatives Of 4,6-Disubstituted 2,5-Dideoxystreptamine Aminoglycoside Antibiotics” (AGILeBiotics B.V., priority 2018, published 2022)
Converted amounts (≈) assume the structure as drawn.

How the values were obtained:
E. coli (APH(3′)IIIa) = test: MIC 50, broth micro-dilution, E. coli expressing APH(3′)IIIa; format: cell-based, Escherichia coli
Experimental: (§1) Plasmid transformation. Approximately 500 ng of the pET-9b(+) (Cat. No. 69432-3, Merck), pAT21-1 (provided by Prof. Dr. Patrice Courvalin, M.D., Pasteur Institute, France; prepared according to Trieu-Cuot et. al, Mol. Gen. Genet. 198(2), 348 (1985)), pBluescript::AAC(6′)-Ie/APH(2″)-Ia (provided by Prof. Dr. Sergei Vakulenko, M.D., University of Notre Dame, Ind., USA; prepared according to S. B. Vakulenko et. al., J. Biol. Chem. 287 (52), 43262 (2012)), pBlue_lpp_aacC3_rrnC and pSET152 (Cat. No. PVT3395, Life Science Market; prepared according to Bierman et al., Gene 116 (1), 43 (1992)) plasmids, encoding APH(3′)-Ia (SEQ ID NO:2), APH(3′)-IIIa (SEQ ID NO:3), AAC(6′)Ie-APH(2″)-Ia (SEQ ID NO:4), AAC(3)-III (SEQ ID NO:1), and AAC(3)-IV (SEQ ID NO:5) respectively, were individually incubated in a vial of competent cells for 15 min on ice. The cells were subsequently heated to 42° C. for 90 s, and cooled on ice for 1 min. After addition of 900 μL LB, the cells were incubated for 1 h at 37° C. and 200 rpm. Cells were plated on LB-agar supplemented with 50 μg/mL KanaA and incubated for 18 h at 37° C. The next day, a single colony was inoculated in 5 mL LB supplemented with 50 μg/mL and grown for 18 h at 37° C. and 200 rpm. A 200 μL sample of each culture was diluted with 200 μL of 40% v/v glycerol in water, and stored at −80° C. The plasmid was purified from the remaining culture using the Plasmid Miniprep kit. Plasmid DNA was investigated by Eurofins Genomics (Germany) to confirm the identity of the aminoglycoside resistance genes.
(§2) 3.1 Against E. coli Strains
(§3) Tested reference compounds. Amikacin sulfate (Cat. No. 01693, Chem-Impex), Gentamicin sulfate (Cat. No. G4918, Sigma Aldrich).
(§4) Microbial strains. E. coli ATCC 25922, E. coli ATCC 25922/pET-9b(+), E. coli ATCC 25922/pAT21-1, E. coli ATCC 25922/pBluescript::AAC(6′)-Ie/APH(2″)-Ia, E. coli ATCC 25922/pBlue_lpp_aacC3_rrnC, E. coli ATCC 25922/pSET152.
(§5) Culture media and equipment. BBL™ Mueller Hinton Broth 2 (Lot. BCBW1143, Cat. No. 70192, Sigma); Kanamycin A (Cat. No. A1493, AppliChem); 96-well deep well plate, 1 mL (Cat. No. 0030506.200, Eppendorf); Plate lids (Cat. No. 0030131.525, Eppendorf); 96-well plate, F-bottom (Cat. No. 781602, Brand; Incubator, Infors Multitron Pro); Laminar flow (Heraeus KS12); UV/VIS meter (Eppendorf BioPhotometer Plus); Platereader (Tecan Sunrise).
(§6) Compound preparation. Compounds were prepared in MH2 media at a concentration of 5 mM and stored at 4° C. For testing, solutions of 128 μM were prepared in MH2. Out of these working solutions, 400 μL was transferred to wells in the first column of 96-well deep well plates. Each compound was transferred in triplicate. Plates were previously filled with 200 μL of MH2 media in all wells except for the wells in the first column. After compound and antibiotic addition, the compounds were serial two-fold diluted by transferring 200 μL from the first to the second column, then from the second to the third column and so on. Finally, 200 μL was removed from the last column.
Inoculum preparation. Microorganisms used were all revived from 20% glycerol (40% v/v glycerol in water was diluted with MH2) storage at −80° C. by inoculating them in 5 mL MH2. inoculums of E. coli containing a plasmid were selected for by adding 50 μg/mL KanaA. The Inoculums were grown to an optical density (measured by UV/Vis spectroscopy) of 0.6-0.8 at 600 nm. Out of these suspensions, actual inoculums were prepared by diluting them to an optical density (OD) of 0.1 in MH2 media. From these inoculums, 200 μL was transferred to each well, resulting in a final compound concentration range of 64 μM-31.3 nM. All plates were incubated at 900 rpm and 70% rH for 18 h at 37° C.
MIC determination. After 18 h of growth, 200 μL was transferred to a 96-well F-bottom plate. The optical density was determined by a plate reader at 600 nm, with 10 s shaking before reading. Triplicate measurements were averaged, and a growth curve was plotted in Microsoft Excel. […]

E. coli (AAC(3)III) = test: MIC 50, broth micro-dilution, E. coli expressing AAC(3)III; format: cell-based, Escherichia coli
Source text: Cloning resistant enzymes. An Escherichia coli codon optimized gene encoding AAC(3)-III (GenBank acc.nr. X55652.1; SEQ ID NO:1), including a promoter and terminator sequence, was synthesized by Integrated DNA Technologies, Belgium. The synthesized gene and pBluescript II KS(+) plasmid were digested using the restriction enzymes SacI and SalI, and purified from a 1% TBE-agarose gel using the illustra Gel Band purification kit. The purified linear plasmid and T4 DNA ligase were used to ligate aac(3)-III under control of the constitutive lipoprotein Ipp promoter and ribosomal RNA rrnC terminator, resulting in pBlue_Ipp_aacC3_rrnC.
as §1, §2, §3, §4, §5, §6
Inoculum preparation. Microorganisms used were all revived from 20% glycerol (40% v/v glycerol in water was diluted with MH2) storage at −80° C. by inoculating them in 5 mL MH2. inoculums of E. coli containing a plasmid were selected for by adding 50 μg/mL KanaA.

[1] = ATCC25922 harboring plasmid encoding APH(3′)IIIa
[2] = ATCC25922 harboring plasmid encoding AAC(3)III
[3] = Escherichia coli, ATCC25922, ATCC25922 harboring plasmid encoding APH(3′)IIIa
[4] = Escherichia coli, ATCC25922, ATCC25922 harboring plasmid encoding AAC(3)III

Compound | MIC50 (E. coli (APH(3′)IIIa); [1]) | MIC50 (E. coli (AAC(3)III); [2]) | MIC50 (E. coli (APH(3′)IIIa); [3]) | MIC50 (E. coli (AAC(3)III); [4])
NCC[C@H](O)C(=O)N[C@@H]1CC(N)[C@@H](O[C@H]2OC(CN)[C@@H](O)CC2N)[C@H](F)C1OC1O[C@H](CO)[C@@H](O)C(N)[C@H]1O (stereo partly drawn) [ABX5024, Tobra-AHB-F] | 1 µM (≈ 0.571 µg/mL) | 1 µM (≈ 0.571 µg/mL) |  | 
C[C@@H](N)CCNC(=N)NC1[C@@H](O)C(OC2[C@@H](F)[C@H](O[C@H]3OC(CN)[C@@H](O)CC3N)C(N)C[C@H]2NC(=O)[C@@H](O)CCN)O[C@H](CO)[C@H]1O (stereo partly drawn) [ABX5047, Tobra-AHB-F-Gua (R) 3-amino-butyl] |  |  | 0.25 µM (≈ 0.171 µg/mL) | 0.25 µM (≈ 0.171 µg/mL)
N=C(NC[C@@H]1CNCCO1)NC1[C@@H](O)C(OC2[C@@H](F)[C@H](O[C@H]3OC(CN)[C@@H](O)CC3N)C(N)C[C@H]2NC(=O)[C@@H](O)CCN)O[C@H](CO)[C@H]1O (stereo partly drawn) [ABX5040, Tobra-AHB-F-Gua (S) morpholin-2-yl methyl] |  |  | 0.25 µM (≈ 0.178 µg/mL) | 0.25 µM (≈ 0.178 µg/mL)
CC(C)(C)CCNC(=N)NC1[C@@H](O)C(OC2[C@@H](F)[C@H](O[C@H]3OC(CN)[C@@H](O)CC3N)C(N)C[C@H]2NC(=O)[C@@H](O)CCN)O[C@H](CO)[C@H]1O (stereo partly drawn) [ABX5025, Tobra-AHB-F-Gua 2-tBu-ethyl] |  |  |  | 0.5 µM (≈ 0.348 µg/mL)
NCC[C@H](O)C(=O)N[C@@H]1C[C@H](N)[C@@H](O[C@H]2O[C@H](CN)[C@@H](O)[C@@H](O)[C@H]2O)[C@H](O)[C@H]1O[C@H]1O[C@H](CO)[C@@H](O)[C@H](N)[C@H]1O [ABX3002, 3′Epi-KanaA-AHB] | 16 to 32 µM | 16 µM (≈ 9.37 µg/mL) |  | 
N=C(NCCN)NC1C(O)[C@@H](CO)OC(OC2C(F)[C@H](O[C@H]3OC(CN)[C@@H](O)CC3N)C(N)C[C@H]2NC(=O)[C@@H](O)CCN)[C@@H]1O (stereo partly drawn) [ABX5020, Tobra-AHB-F-Gua-2-amino-ethyl] |  |  | 0.5 µM (≈ 0.328 µg/mL) | 0.25 to 0.5 µM (≈ 0.164 to 0.328 µg/mL)
N=C(NCC1CCCO1)NC1[C@@H](O)C(OC2[C@@H](F)[C@H](O[C@H]3OC(CN)[C@@H](O)CC3N)C(N)C[C@H]2NC(=O)[C@@H](O)CCN)O[C@H](CO)[C@H]1O (stereo partly drawn) [ABX5046, Tobra-AHB-F-Gua tetrahydrofuran-2-yl methyl] |  |  | 0.5 µM (≈ 0.348 µg/mL) | 0.5 µM (≈ 0.348 µg/mL)
N=C(NC[C@H]1CNCCO1)NC1[C@@H](O)C(OC2[C@@H](F)[C@H](O[C@H]3OC(CN)[C@@H](O)CC3N)C(N)C[C@H]2NC(=O)[C@@H](O)CCN)O[C@H](CO)[C@H]1O (stereo partly drawn) [ABX5043, Tobra-AHB-F-Gua (R) morpholin-2-yl methyl] |  |  | 0.25 µM (≈ 0.178 µg/mL) | 0.25 µM (≈ 0.178 µg/mL)
N=C(NC[C@@H]1CCNC1)NC1[C@@H](O)C(OC2[C@@H](F)[C@H](O[C@H]3OC(CN)[C@@H](O)CC3N)C(N)C[C@H]2NC(=O)[C@@H](O)CCN)O[C@H](CO)[C@H]1O (stereo partly drawn) [ABX5039, Tobra-AHB-F-Gua (R) pyrrolidine-3-ylmethyl] |  |  | 0.25 µM (≈ 0.174 µg/mL) | 0.25 µM (≈ 0.174 µg/mL)
N=C(N)NC1[C@@H](O)C(OC2[C@@H](O)[C@H](O[C@H]3OC(CN)[C@@H](O)[C@H](O)C3N)C(N)C[C@H]2NC(=O)[C@@H](O)CCN)O[C@H](CO)[C@H]1O (stereo partly drawn) [ABX4009, KanaB-AHB-Gua] | 64 µM (≈ 40.1 µg/mL) | 1 to 2 µM |  | 
N=C(N)NC1C(O)[C@@H](CO)OC(OC2C(F)[C@H](O[C@H]3OC(CN)[C@@H](O)CC3N)C(N)C[C@H]2NC(=O)[C@@H](O)CCN)[C@@H]1O (stereo partly drawn) [ABX5006, Tobra-AHB-F-Gua] |  |  | < 0.25 µM | 0.25 µM (≈ 0.153 µg/mL)
